In patent publication US10087148B2, “Quinazolines as biogenic amine transport modulators” (THE UNITED STATES OF AMERICA AS REPRESENTED BY THE …, priority 2014, dated 2018):

Columns and labels:
[1] = biological target: serotonin transporter (SERT) (Rattus norvegicus (Rat), UniProt P31652); test: [3H]serotonin (5-HT) uptake inhibition in rat brain synaptosomes; type: biochemical; details: mean ± S.D., n = 3; for Emax: read-out: SERT Uptake Emax
[2] = biological target: norepinephrine transporter (NET) (Rattus norvegicus, UniProt Q63380); test: [3H]norepinephrine (NE) uptake inhibition in rat brain synaptosomes; type: biochemical; details: for Emax: read-out: NET Uptake Emax; for IC50: read-out: NET Uptake IC50, mean ± S.D., n = 3
Sequence of norepinephrine transporter (NET) (Q63380 1-617): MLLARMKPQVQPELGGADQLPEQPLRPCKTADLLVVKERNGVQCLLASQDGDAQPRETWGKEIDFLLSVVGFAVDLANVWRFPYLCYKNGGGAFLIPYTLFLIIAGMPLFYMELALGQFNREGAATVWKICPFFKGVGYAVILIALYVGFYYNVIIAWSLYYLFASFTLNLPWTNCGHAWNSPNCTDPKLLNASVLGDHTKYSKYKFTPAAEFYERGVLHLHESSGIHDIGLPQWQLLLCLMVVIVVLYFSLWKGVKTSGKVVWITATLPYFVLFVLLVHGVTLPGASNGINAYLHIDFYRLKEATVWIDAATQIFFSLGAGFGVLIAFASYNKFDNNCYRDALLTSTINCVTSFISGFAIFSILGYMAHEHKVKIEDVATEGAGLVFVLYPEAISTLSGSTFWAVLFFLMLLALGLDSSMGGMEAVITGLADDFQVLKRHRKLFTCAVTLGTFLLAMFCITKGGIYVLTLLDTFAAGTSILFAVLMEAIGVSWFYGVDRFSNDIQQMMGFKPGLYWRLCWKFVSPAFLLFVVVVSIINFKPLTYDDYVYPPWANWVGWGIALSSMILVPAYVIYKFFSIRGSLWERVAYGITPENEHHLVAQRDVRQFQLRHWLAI

DAT [3] = biological target: T1, DAT (Rattus norvegicus (Rat), UniProt P23977); test: d-amphetamine-induced, DAT-mediated [3H]DA release (shift experiments); type: biochemical; details: for Apparent Kc: [Blocker]/((EC50-2/EC50-1) − 1); for Emax: read-out: d-Amphetamine Emax in presence of blocker, blocker concentration per row, mean ± S.D., n = 3
T1 sequence (P23977 whole entry): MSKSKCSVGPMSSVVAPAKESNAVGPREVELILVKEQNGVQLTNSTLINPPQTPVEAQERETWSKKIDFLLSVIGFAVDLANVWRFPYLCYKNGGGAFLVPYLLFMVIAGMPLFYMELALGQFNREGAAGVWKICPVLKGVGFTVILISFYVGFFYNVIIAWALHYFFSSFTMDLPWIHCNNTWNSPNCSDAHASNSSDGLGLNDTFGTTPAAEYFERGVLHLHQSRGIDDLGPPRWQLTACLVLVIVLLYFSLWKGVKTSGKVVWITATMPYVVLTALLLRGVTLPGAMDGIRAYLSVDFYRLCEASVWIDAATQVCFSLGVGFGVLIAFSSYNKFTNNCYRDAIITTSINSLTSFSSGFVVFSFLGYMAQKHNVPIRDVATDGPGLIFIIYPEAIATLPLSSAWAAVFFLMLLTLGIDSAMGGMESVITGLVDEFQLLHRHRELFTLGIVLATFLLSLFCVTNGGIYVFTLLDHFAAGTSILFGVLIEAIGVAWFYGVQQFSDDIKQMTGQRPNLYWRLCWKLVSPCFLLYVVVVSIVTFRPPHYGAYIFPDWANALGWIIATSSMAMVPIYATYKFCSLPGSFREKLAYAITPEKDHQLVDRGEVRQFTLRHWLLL

DAT [4] = biological target: T1, DAT; test: Inhibition of [3H]WIN35428 binding to rat caudate DAT; details: [3H]WIN35428
Experimental: All of the test compounds were synthesized as described herein. […] The data from three experiments were pooled and fit to a dose-response curve equation (using KaleidaGraph; Synergy Software, Reading, Pa.) to yield an Emax and IC50 value. […] Selected compounds were also tested for their ability to inhibit [^3H]WIN35428 binding to rat caudate DAT.

[5] = biological target: T2, dopamine transporter (DAT) (Rattus norvegicus (Rat), UniProt P23977); test: [3H]dopamine (DA) uptake inhibition in rat brain (caudate) synaptosomes; type: biochemical
T2 sequence (P23977 whole entry): as above

[6] = biological target: T2, dopamine transporter (DAT); test: Dopamine transporter-mediated [3H]MPP+ release (d-amphetamine-induced, shift experiments) in rat caudate synaptosomes; type: biochemical; details: for Apparent Kc / Emax: [3H]MPP+ release; for Apparent Kc: [Blocker]/((EC50-2/EC50-1) − 1); for Emax: read-out: d-Amphetamine Emax in presence of blocker, blocker concentration per row, mean ± S.D., n = 3
[7] = mean ± S.D., n = 3, unit as printed in head (text gives 1100 nM where table prints 1.1)
[8] = mean ± S.D., n = 3, read-out: DAT Uptake Emax
[9] = values in Table 9, read-out: Emax for DAT Uptake Inhibition

Sequence of serotonin transporter (SERT) (P31652 whole entry): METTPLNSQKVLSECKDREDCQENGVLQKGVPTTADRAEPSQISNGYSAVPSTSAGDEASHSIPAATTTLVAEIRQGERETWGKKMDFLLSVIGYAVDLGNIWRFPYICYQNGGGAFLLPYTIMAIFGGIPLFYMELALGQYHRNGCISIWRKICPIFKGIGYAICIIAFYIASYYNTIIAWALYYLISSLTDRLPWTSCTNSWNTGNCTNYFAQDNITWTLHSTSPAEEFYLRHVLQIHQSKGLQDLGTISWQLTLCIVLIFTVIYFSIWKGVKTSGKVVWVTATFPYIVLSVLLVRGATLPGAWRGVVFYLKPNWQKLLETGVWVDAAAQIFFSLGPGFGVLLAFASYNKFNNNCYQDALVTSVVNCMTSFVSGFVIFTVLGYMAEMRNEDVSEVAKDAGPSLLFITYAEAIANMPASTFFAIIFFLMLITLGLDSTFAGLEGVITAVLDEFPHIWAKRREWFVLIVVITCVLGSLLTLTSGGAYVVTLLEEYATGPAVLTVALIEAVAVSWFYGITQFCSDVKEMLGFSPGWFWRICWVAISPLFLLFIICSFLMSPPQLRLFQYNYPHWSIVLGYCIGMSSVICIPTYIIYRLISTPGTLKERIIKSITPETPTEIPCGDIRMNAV

Row | SMILES | IC50 [1] | Emax [1] | Emax [2] | IC50 [2] | Apparent Kc (DAT [3]) | Emax (DAT [3]) | Emax (DAT [4]; mean ± S.D., n = 3) | IC50 (DAT [4]; [7]) | IC50 ([5]; mean ± S.D., n = 3) | Emax [5, 8] | Emax [5, 9] | Apparent Kc [6] | Emax [6] | Inhibition of DAT binding, in words (DAT [4]) | DAT Binding Emax (DAT [4]; mean ± S.D., n = 3) | DAT Binding IC50 (DAT [4]; [7]) | Efficacy of [3H]DA (DAT) uptake inhibition, in words [5] | Effect on d-amphetamine-induced DAT-mediated [3H]MPP+ release curve, in words ([6]; blocking concentration ~25 times DAT uptake IC50)
1 | c1ccc(C(CCNc2nc(-c3ccc4[nH]ccc4c3)nc3ccccc23)c2ccccc2)cc1 [SRI-29213] | 89 ± 51 nM | 43 ± 4% | 77 ± 3% | 346 ± 59 nM | 6.7 µM | 71 ± 3% | 94 ± 2% | 200 nM | 16 ± 4 nM | 81 ± 3% | 81% | 886 nM | 78 ± 2% | – | – | – | – | –
2 | c1ccc(C(CNc2nc(-c3ccc4nccn4c3)nc3ccccc23)c2ccccc2)cc1 [SRI-29574] | – | 52 ± 2% | 72 ± 4% | 52 ± 15 nM | -0.239 µM | 95 ± 2% | – | – | – | 68 ± 2% | 68% | -368 nM | 103 ± 3% | inactive | Inactive | Inactive | partially inhibited | increased EC50 and decreased Emax
3 | Cc1cc2nccn2cc1-c1nc(NCC(O)(c2ccccc2)c2ccccc2)c2ccccc2n1 [SRI-31143] | – | 51 ± 2% | 69 ± 4% | 16 ± 5 nM | – | – | 52 ± 8% | 3390 ± 1990 nM | – | 69 ± 1% | 67% | 46 nM | 104 ± 4% | – | – | – | – | –
